Measured values reported in PubChem BioAssay (NCI).
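Where inhibition never reached the appropriate level, the endpoint shown equals the highest concentration tested. Otherwise, values were interpolated linearly from a five-concentration, 48-hour dose response in 96-well plates. GI50 is the concentration that inhibits growth by half. Definition used: TGI = concentration required for complete inhibition of growth.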 Where a SMILES comes first, the peptide text is derived from it. [ ]: non-standard residue; d: D form. The star is where a group is joined. ξ: configuration not given here. ξF = NC(Cc1ccccc1)C(=O)O; Cbz = O=C(OCc1ccccc1)*; Aib = CC(C)(N)C(=O)O

Experiments:
Experiment in all cases: NCI-60 cell line screen, 48 h
DU-145 prostate = tested on: DU-145 prostate
A549 NSCLC = tested on: A549 NSCLC
MDA-MB-435 = tested on: MDA-MB-435
SK-MEL-28 melanoma = tested on: SK-MEL-28 melanoma
NCI-H226 lung = tested on: NCI-H226 lung
HOP-92 NSCLC = tested on: HOP-92 NSCLC
SR leukemia = tested on: SR leukemia
KM12 colon = tested on: KM12 colon
NCI-H23 lung = tested on: NCI-H23 lung
BT-549 breast = tested on: BT-549 breast

Row | SMILES | TGI (DU-145 prostate) | TGI (A549 NSCLC) | TGI (MDA-MB-435) | TGI (SK-MEL-28 melanoma) | TGI (NCI-H226 lung) | TGI (HOP-92 NSCLC) | TGI (SR leukemia) | TGI (KM12 colon) | TGI (NCI-H23 lung) | TGI (BT-549 breast) | GI50 (NCI-H226 lung) | GI50 (HOP-92 NSCLC) | GI50 (A549 NSCLC) | GI50 (SR leukemia) | GI50 (KM12 colon) | GI50 (NCI-H23 lung) | GI50 (SK-MEL-28 melanoma) | GI50 (DU-145 prostate) | GI50 (BT-549 breast) | GI50 (MDA-MB-435)
1 | COC(=O)C(C)(C)NC(=O)C(Cc1ccccc1)NC(=O)C(C)(C)NC(=O)OCc1ccccc1 (stereo not drawn) (Cbz-[Aib]-[ξF]-[Aib]-OMe) | > 100 µM | > 100 µM | > 100 µM | > 100 µM |  |  |  |  |  |  |  |  |  |  |  |  |  |  |  | 
2 | Nc1c(-c2ccccc2[N+](=O)[O-])nc2ccccn12 |  |  |  | > 100 µM | > 100 µM | > 100 µM | > 100 µM | > 100 µM | > 100 µM |  |  |  |  |  |  |  |  |  |  | 
3 | C(=N\OCCc1ccccc1)/c1cccnc1 | > 100 µM | > 100 µM | > 100 µM | > 100 µM | > 100 µM | > 100 µM |  | > 100 µM | > 100 µM | > 100 µM |  |  |  |  |  |  |  |  |  | 
4 | Clc1ccc(-c2ccc(-c3nnc(COc4ccc(OCc5nnc(-c6ccc(-c7ccc(Cl)cc7Cl)o6)o5)c(Cl)c4)o3)o2)c(Cl)c1 | > 100 µM | > 100 µM | > 100 µM | > 100 µM | > 100 µM |  | 74.8 µM | > 100 µM | > 100 µM | > 100 µM |  |  |  |  |  |  |  |  |  | 
5 | CCCCOCc1cc(CN2CCN(C)CC2)c(O)c2ncccc12 |  | > 100 µM |  | > 100 µM | 88.4 µM | > 100 µM | 33.2 µM | > 100 µM | 47.6 µM |  |  |  |  |  |  |  |  |  |  | 
6 | COc1cc(Nc2nnc3n2S(=O)(=O)c2cc(C)c(Cl)cc2S3)cc(OC)c1 | 44.2 µM | 30 µM | > 100 µM | > 100 µM | 55.1 µM | 27 µM |  | > 100 µM | 43.7 µM | 22.1 µM |  |  |  |  |  |  |  |  |  | 
7 | c1cncc(O[Si](Oc2cccnc2)(Oc2cccnc2)Oc2cccnc2)c1 |  | > 100 µM |  | > 100 µM | > 100 µM |  | > 100 µM | > 100 µM | > 100 µM |  |  |  |  |  |  |  |  |  |  | 
8 | NCCSCc1ccccc1Cl | > 100 µM | > 100 µM | > 100 µM | > 100 µM | > 100 µM | > 100 µM | 55.7 µM | > 100 µM | 95 µM | > 100 µM |  |  |  |  |  |  |  |  |  | 
9 | Cc1ccc(N2CCN(CCC(=O)O)CC2)cc1 | > 100 µM | > 100 µM | > 100 µM | > 100 µM | > 100 µM | > 100 µM | > 100 µM | > 100 µM | > 100 µM | > 100 µM |  |  |  |  |  |  |  |  |  | 
10 | C[CH2][Ge]([CH2]C)([CH2]C)[O]C(=O)CCC(=O)[O][Ge]([CH2]C)([CH2]C)[CH2]C |  | > 100 µM |  | > 100 µM | > 100 µM | > 100 µM | > 100 µM | > 100 µM | > 100 µM |  | > 100 µM | 16.2 µM | 68.5 µM | 40.3 µM | 55.2 µM | 39.7 µM | > 100 µM |  |  | 
11 | N=C(N)c1ccc(-c2ccc(-c3cccs3)s2)s1 | 2.97 µM |  |  |  | 52.4 µM | 2.6 µM | 0.895 µM | 2.92 µM | 3.42 µM |  | 6.89 µM | 1.06 µM |  | 0.302 µM | 1.47 µM | 1.62 µM |  | 1.52 µM |  | 
12 | COc1cc(-c2n/c(=C\c3c(O)[nH]c4cc(Cl)ccc34)cc3c2=Nc2ccccc2-3)cc(OC)c1OC | 7.52 µM | 21.9 µM | 51.3 µM | 13.8 µM | 21.9 µM |  | 6.35 µM | > 100 µM | 23.2 µM | 5.12 µM | 3.85 µM |  | 4.8 µM | 2.38 µM | 5.89 µM | 3.57 µM | 4.05 µM | 2.57 µM | 2.25 µM | 6.39 µM
13 | COc1ccc(/C=C2\Sc3nnc(CNc4ccc(Cl)cc4)n3N=C2c2cc(F)c(Cl)cc2Cl)cc1OC | > 100 µM |  | > 100 µM | > 100 µM | > 100 µM | > 100 µM | > 100 µM | > 100 µM | > 100 µM |  |  |  |  |  |  |  |  |  |  | 
14 | CCOc1ccc(N=NS(=O)(=O)O)cc1 | > 100 µM | > 100 µM | > 100 µM | > 100 µM | > 100 µM | > 100 µM | > 100 µM | > 100 µM | > 100 µM | > 100 µM |  |  |  |  |  |  |  |  |  | 
15 | CC(C)(CCCCC(C)(C)C1NC(=O)N1)C1NC(=O)N1 | > 10 µM | > 10 µM | > 10 µM | > 10 µM | > 10 µM |  |  | > 10 µM | > 10 µM |  |  |  |  |  |  |  |  |  |  | 
16 | CC(C)CC(NC(=O)C(Cc1ccccc1)NC(=O)C(Cc1c[nH]c2ccccc12)NC(=O)CNC(=O)C(N)Cc1ccc(O)cc1)C(=O)O (stereo not drawn) (H-YGWFL-OH; configuration not given here) | > 100 µM | > 100 µM | > 100 µM | > 100 µM | > 100 µM | 42.1 µM | > 100 µM | 57.4 µM | > 100 µM | > 100 µM |  |  |  |  |  |  |  |  |  | 
17 | CC(=O)ON1C(=O)c2cccc3cccc(c23)C1=O | 40.2 µM | > 100 µM | 39.8 µM | 44.6 µM |  | > 100 µM |  | > 100 µM | 50 µM | 74.5 µM |  |  |  |  |  |  |  |  |  | 
18 | O=c1c2cc(I)ccc2nc(SCc2n[nH]c(=S)o2)n1Cc1ccccc1 | 31.1 µM | 48.4 µM | 44.4 µM | 32.3 µM | 27.6 µM | 27.9 µM | > 100 µM | 40.4 µM | 34.2 µM | 37.1 µM |  |  |  |  |  |  |  |  |  | 
19 | COC1=CC(=O)c2c(c(COP(=O)(N(C)CCBr)N(C)CCBr)cn2C)C1=O | 1.06 µM | 0.659 µM | 0.222 µM | 0.33 µM |  |  |  | 1.07 µM | 2.06 µM | 0.616 µM |  |  |  |  |  |  |  |  |  | 
20 | CC(C)(C)c1cc(OCc2nnc3sc(=S)[nH]n23)c(Cl)cc1OCc1nnc2sc(=S)[nH]n12 | 94 µM | > 100 µM | 55.1 µM | 58.4 µM | > 100 µM | 53.3 µM | 50.8 µM | 68.7 µM | 95.5 µM | > 100 µM |  |  |  |  |  |  |  |  |  | 
21 | Cc1ccc(C(O)(c2ccc(C)cc2)c2ccccn2)cc1 |  | > 100 µM |  | > 100 µM | > 100 µM |  |  |  | > 100 µM |  |  |  |  |  |  |  |  |  |  | 
